Assay results published in ChEMBL document CHEMBL1201862, “PubChem BioAssay data set” (2004).
Calls of active or inactive are those of the source.

Assays:
[1] = viability loss in HeLa cells – cytotoxicity control for MgcRacGAP inhibitor project, dose response (AID 624300); type: functional
[2] = target: T1, Rac GTPase-activating protein 1 (Homo sapiens, UniProt Q9H0H5); test: blockers of MgcRacGAP-driven Rac1 GTP hydrolysis – biochemical, ADP Hunter fluorescence, primary and confirmatory, confirmation (AID 624330); type: functional
T1 sequence (Q9H0H5 whole entry): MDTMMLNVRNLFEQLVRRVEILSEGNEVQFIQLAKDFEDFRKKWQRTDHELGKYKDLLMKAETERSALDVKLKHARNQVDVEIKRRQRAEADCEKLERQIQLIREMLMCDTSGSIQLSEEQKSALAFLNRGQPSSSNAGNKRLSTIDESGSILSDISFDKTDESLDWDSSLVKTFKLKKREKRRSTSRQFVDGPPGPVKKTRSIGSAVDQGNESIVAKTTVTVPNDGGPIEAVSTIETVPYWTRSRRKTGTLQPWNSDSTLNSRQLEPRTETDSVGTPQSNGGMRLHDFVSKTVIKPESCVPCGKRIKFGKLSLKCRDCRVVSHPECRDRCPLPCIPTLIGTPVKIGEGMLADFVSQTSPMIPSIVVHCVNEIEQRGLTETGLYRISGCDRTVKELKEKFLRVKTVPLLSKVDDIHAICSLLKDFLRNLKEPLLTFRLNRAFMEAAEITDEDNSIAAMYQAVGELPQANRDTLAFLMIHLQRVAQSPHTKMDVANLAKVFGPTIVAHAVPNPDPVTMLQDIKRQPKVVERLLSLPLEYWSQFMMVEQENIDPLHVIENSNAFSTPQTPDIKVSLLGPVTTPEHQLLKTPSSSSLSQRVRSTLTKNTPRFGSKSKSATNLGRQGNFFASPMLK

[3] = HIV-1 AD8 envelope cell-cell fusion blockers – cherry-pick, dose response (AID 652062); type: functional, cell-based;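 note: luciferase signal from cell-cell fusion driven by HIV-1 clade B AD8 Env; potency is for inhibitors of fusion seen as a drop in luminescence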
Ephrin type-A receptor 4 = Ephrin type-A receptor 4 (Mus musculus, UniProt Q03137); test: EphA4 ligand-binding antagonists – biochemical, colorimetric, mouse EphA4, primary screen (AID 689); type: functional
Sequence of Ephrin type-A receptor 4 (Q03137 whole entry): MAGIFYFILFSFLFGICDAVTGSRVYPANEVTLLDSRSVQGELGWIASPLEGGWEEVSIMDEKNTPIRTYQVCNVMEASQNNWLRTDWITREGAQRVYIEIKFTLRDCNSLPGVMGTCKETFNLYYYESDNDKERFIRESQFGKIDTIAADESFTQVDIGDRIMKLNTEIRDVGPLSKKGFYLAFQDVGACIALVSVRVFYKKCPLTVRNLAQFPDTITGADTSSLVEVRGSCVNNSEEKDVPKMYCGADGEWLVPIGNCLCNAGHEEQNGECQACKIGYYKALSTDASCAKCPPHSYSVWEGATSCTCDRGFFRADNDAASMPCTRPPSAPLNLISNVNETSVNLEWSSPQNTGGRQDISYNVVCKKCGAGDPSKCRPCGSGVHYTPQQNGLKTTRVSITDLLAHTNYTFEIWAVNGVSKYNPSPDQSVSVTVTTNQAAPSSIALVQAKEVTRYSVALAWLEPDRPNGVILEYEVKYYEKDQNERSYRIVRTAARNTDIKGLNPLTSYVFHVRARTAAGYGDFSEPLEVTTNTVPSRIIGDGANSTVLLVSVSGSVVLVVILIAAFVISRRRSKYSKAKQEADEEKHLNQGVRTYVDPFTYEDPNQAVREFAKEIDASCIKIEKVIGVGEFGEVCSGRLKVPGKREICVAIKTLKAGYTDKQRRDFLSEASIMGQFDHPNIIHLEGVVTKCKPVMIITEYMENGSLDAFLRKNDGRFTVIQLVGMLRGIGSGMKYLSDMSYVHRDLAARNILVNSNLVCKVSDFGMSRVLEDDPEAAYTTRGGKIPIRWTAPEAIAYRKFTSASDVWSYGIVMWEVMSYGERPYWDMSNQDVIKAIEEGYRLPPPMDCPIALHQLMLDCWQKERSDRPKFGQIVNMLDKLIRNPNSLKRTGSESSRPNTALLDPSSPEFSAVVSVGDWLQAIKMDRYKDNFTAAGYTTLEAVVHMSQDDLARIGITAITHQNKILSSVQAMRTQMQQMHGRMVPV

[4] = growth inhibition of yeast DHODH-expressing 3D7 parasites – SYBR Green, dry powder samples, dose response (AID 1159570); type: functional, cell-based;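 note: parasite growth measured after 72 hours of compound exposure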
[5] = P. falciparum Dd2 growth inhibitors, dose response, SYBR Green, cherry-picked samples (AID 1159567); type: functional, cell-based
[6] = Dd2 malaria parasite growth inhibition potency – SYBR Green, dry powder samples, dose response (AID 1159566); type: functional, cell-based;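 note: potency for growth inhibition with lower SYBR green DNA signal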
[7] = toxicity to human hepatoma HepG2 cells – cell-based, cherry-picked samples, cytotoxicity control, dose response (AID 1159577); type: functional
[8] = growth inhibition of PfATP4-mutant resistant parasites – NITD609-resistant line, SYBR Green, dry powder, dose response (AID 1159571); type: functional, cell-based;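 note: parasites synchronized at ring stage by sorbitol before testing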
[9] = target: T2, Probable nicotinate-nucleotide adenylyltransferase (Staphylococcus aureus (strain N315), UniProt P65502); type: functional, Staphylococcus aureus subsp. aureus N315;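 for IC50 Mean: confirmatory dose-response retesting of NadD inhibitor hits first found in an ultra-high-throughput screen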
T2 sequence (P65502 whole entry): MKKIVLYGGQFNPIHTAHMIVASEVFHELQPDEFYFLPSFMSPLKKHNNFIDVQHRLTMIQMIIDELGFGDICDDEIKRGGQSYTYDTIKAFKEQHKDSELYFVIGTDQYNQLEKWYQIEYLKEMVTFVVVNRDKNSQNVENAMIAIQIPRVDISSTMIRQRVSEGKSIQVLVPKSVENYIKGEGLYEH

[10] = target: T2, Probable nicotinate-nucleotide adenylyltransferase; type: functional, Staphylococcus aureus subsp. aureus N315; settings: read-out: IC50_Mean
[11] = target: Dual specificity tyrosine-phosphorylation-regulated kinase 1A (Rattus norvegicus, UniProt Q63470); type: biochemical, Homo sapiens
[12] = target: T3, Adenosylmethionine-8-amino-7-oxononanoate aminotransferase (Mycobacterium tuberculosis, UniProt P9WQ81); test: Mycobacterium tuberculosis BioA enzyme inhibitor Measured in Biochemical System Using Plate Reader - 2163-02_Inhibitor_Dose_CherryPick_Activity.; type: functional, Mycobacterium tuberculosis UT205
T3 sequence (P9WQ81 whole entry): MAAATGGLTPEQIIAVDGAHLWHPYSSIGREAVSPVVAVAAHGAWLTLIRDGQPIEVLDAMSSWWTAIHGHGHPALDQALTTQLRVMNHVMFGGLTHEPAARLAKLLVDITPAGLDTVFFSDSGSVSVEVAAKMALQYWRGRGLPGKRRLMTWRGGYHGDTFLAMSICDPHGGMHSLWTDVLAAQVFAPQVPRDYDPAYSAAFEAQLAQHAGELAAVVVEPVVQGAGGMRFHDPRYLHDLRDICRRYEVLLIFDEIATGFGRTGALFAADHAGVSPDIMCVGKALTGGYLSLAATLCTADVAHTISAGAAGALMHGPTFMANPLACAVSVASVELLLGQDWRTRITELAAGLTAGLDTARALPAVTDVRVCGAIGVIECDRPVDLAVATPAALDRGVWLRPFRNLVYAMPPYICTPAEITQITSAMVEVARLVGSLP

[13] = target: T4, DNA repair protein RAD52 homolog (Homo sapiens, UniProt P43351); type: functional, biochemical
T4 sequence (P43351 whole entry): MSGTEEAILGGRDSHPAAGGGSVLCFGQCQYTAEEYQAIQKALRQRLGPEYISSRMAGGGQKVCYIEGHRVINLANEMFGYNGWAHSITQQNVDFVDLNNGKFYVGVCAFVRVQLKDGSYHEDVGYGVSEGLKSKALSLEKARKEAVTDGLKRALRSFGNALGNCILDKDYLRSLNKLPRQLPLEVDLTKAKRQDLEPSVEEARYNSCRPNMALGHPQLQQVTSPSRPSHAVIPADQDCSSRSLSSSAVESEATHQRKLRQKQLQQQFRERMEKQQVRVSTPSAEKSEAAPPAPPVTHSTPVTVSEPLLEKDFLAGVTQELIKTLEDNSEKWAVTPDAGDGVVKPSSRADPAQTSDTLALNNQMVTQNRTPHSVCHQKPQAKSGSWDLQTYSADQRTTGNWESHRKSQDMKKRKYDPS

[14] = target: T5, Voltage-gated N-type calcium channel alpha-1B subunit/Amyloid beta A4 precursor protein-binding family A member 1 (Homo sapiens, UniProt Q00975+Q02410); type: protein assay
T5 sequence (Q00975 whole entry): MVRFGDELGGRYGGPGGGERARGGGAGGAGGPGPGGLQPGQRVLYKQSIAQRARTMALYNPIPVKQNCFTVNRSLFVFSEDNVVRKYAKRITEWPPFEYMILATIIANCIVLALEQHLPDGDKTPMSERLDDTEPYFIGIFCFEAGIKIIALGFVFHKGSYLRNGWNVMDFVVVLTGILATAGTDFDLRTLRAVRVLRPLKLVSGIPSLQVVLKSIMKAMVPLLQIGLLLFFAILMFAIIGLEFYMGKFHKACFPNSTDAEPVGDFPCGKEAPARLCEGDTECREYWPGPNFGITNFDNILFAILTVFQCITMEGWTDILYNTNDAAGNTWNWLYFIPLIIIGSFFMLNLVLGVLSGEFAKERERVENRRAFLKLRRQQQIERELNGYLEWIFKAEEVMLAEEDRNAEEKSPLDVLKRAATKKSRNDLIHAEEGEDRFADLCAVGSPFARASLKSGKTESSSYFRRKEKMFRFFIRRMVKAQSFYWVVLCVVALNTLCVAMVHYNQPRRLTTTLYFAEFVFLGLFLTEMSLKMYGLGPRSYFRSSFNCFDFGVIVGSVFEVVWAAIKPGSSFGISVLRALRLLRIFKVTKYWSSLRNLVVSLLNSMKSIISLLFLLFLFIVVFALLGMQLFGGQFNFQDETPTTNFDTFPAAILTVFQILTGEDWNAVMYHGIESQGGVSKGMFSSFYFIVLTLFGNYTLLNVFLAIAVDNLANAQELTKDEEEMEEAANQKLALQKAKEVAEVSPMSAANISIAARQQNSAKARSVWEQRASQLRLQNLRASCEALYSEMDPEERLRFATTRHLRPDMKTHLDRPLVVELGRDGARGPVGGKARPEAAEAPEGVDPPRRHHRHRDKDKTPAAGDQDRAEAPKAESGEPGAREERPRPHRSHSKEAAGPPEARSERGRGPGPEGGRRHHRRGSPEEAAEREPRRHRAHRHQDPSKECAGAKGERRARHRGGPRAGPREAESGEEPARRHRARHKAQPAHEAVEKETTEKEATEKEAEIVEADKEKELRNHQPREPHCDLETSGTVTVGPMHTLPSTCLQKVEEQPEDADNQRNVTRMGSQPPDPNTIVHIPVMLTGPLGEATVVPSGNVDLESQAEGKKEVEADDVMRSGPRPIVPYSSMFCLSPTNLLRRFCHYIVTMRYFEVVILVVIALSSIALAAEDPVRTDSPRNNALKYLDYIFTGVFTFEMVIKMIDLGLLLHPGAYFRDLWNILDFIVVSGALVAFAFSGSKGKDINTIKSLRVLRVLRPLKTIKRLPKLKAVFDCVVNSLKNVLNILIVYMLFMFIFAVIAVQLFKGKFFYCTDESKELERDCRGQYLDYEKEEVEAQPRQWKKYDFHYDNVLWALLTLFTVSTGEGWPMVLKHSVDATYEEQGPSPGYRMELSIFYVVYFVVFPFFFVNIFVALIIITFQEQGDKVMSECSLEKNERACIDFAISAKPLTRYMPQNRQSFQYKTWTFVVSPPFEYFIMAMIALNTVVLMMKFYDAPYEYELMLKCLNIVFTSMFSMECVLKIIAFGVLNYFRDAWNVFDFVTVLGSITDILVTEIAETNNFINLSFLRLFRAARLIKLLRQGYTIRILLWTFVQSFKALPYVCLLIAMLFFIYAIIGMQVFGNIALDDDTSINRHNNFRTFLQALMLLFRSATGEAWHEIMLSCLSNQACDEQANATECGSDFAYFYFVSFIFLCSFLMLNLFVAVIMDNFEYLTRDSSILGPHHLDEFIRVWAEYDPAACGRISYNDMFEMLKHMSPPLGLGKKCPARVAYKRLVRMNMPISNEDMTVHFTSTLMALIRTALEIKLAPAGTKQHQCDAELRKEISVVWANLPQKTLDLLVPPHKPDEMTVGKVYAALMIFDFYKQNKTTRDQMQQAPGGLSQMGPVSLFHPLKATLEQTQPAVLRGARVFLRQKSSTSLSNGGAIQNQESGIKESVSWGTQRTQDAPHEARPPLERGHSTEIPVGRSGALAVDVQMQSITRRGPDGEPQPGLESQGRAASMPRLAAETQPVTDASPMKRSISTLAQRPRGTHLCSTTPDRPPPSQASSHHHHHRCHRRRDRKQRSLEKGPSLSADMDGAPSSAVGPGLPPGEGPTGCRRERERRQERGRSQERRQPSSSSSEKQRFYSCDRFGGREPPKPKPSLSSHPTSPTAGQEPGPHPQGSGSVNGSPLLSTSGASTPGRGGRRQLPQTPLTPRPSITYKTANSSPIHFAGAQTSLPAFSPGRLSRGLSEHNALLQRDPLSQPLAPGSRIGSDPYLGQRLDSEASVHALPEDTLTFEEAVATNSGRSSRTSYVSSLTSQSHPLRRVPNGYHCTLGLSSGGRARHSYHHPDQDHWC
T5 sequence (Q02410 whole entry): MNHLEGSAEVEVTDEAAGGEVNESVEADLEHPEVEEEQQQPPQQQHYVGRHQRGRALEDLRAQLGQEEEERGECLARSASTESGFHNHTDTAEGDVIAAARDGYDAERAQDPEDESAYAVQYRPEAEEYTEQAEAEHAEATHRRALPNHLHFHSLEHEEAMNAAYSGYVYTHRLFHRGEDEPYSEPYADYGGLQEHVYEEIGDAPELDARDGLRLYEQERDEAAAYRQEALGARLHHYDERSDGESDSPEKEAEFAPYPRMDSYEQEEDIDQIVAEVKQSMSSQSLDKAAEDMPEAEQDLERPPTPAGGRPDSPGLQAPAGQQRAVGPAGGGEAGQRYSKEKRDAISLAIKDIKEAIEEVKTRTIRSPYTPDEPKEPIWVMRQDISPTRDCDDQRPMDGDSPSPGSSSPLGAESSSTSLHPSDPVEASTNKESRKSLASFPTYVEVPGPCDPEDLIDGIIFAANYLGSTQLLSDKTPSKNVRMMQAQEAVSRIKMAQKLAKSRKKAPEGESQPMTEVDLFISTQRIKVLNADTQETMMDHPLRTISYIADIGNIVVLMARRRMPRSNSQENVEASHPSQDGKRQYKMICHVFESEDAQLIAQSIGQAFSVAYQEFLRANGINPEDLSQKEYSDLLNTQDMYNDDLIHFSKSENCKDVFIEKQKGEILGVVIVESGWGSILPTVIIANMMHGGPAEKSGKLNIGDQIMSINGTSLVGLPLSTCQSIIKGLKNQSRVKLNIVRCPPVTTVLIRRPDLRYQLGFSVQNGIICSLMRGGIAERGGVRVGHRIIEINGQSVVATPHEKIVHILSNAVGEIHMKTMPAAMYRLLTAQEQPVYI

[15] = target: T5, Voltage-gated N-type calcium channel alpha-1B subunit/Amyloid beta A4 precursor protein-binding family A member 1; type: protein assay; remark: listed apart in the source
H9c2 = test: cells; type: functional, cell-based; settings: Rattus norvegicus, H9c2, Myocardium;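 note: confirmatory concentration-response retest of ultra-high-throughput screening hits for modulation of myocardial damage; cell death induced by hydrogen peroxide oxidative stress; compound pretreatment for 60 min then peroxide exposure for 2 h; potency is for protecting the cells against peroxide damage rather than for killing them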
Caspase-6 = target: T6, Caspase-6 (Homo sapiens, UniProt P55212); test: inhibition of CASP6 peptide cleavage – biochemical, VEID-R110 fluorescence, cherry-pick, dose response (AID 720632)
T6 sequence (P55212 whole entry): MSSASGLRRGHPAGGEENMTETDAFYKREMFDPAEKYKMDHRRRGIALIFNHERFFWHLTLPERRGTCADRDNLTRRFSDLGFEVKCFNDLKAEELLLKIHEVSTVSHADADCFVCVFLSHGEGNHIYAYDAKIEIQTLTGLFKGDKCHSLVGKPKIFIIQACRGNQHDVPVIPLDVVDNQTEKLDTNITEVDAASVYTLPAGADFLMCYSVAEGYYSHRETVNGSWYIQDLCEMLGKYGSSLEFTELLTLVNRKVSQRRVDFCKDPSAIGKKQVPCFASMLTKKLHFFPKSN

[16] = Late stage assay provider results from the probe development effort to identify selective inhibitors of heat shock protein 90 (HSP90): Absorbance-based cell proliferation assay in SKBR3 cells.; type: functional; settings: SK-BR-3
[17] = Late stage assay provider results from the probe development effort to identify selective inhibitors of heat shock protein 90 (HSP90): Absorbance-based cell proliferation assay in MCF7 cells.; type: functional
[18] = Luminescence Cell-Based Dose Response HTS to Identify Inhibitors of 5'UTR Stem-Loop Driven Prion Protein mRNA Translation in H4 Neuroglioblastoma Cells. [Related pubchem assays: 1827 (Project Summary), 1813 (Primary HTS)]; type: functional
cells [19] = type: functional, cell-based
[20] = target: T7, Trace amine-associated receptor 1 (Homo sapiens, UniProt Q96RJ0); test: Fluorescence-based cell-based high throughput dose response assay to identify agonists of the human trace amine associated receptor 1 (TAAR1).; type: functional
T7 sequence (Q96RJ0 whole entry): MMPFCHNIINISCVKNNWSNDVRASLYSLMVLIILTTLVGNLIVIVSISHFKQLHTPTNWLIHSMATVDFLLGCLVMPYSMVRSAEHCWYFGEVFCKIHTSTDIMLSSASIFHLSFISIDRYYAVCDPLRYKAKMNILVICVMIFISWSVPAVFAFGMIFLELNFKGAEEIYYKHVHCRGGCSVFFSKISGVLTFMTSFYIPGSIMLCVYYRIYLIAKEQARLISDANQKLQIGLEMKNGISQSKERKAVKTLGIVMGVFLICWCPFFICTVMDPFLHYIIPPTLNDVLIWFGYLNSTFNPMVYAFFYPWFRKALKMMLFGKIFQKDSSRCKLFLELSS

[21] = target: T7, Trace amine-associated receptor 1; test: Counterscreen for agonists of the human trace amine associated receptor 1 (hTAAR1): Fluorescence-based cell-based high throughput dose response assay to identify hTAAR1 agonist that also desensitize TAAR1 receptor response.; type: functional
cells [22] = type: functional, cell-based; remark: listed apart in the source
[23] = A549 cell cytotoxicity, dose response, cytotoxicity control, plate reader, cherry-pick, antagonist series (AID 743412); type: functional, cell-based
[24] = toxicity toward HepG2 liver cells – cell-based, plate reader, cherry-pick, antagonist series, cytotoxicity control, dose response (AID 743416); type: functional
[25] = blockers of bursicon-stimulated LGR2 cAMP reporter – cell-based, HEK293, CRE-luciferase reporter, cherry pick, set 2, dose response (AID 743343); type: functional;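 note: transfected cells were stimulated with diluted bursicon conditioned medium after compound addition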
[26] = blockade of melanocortin 4 receptor signaling – cell-based, plate reader, cherry pick, counter-screen for LGR2 antagonist project, dose response (AID 743444); type: functional;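 note: transfected HEK 293 cells stimulated with alpha-MSH peptide; potency of inhibitors of the alpha-MSH evoked signal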

CCc1nc(Nc2ccc(O)cc2)c2oc3ccccc3c2n1
CC50 [1]: 87.6 µM (active)
IC50 [2]: 18.2 µM (active)

CCCCS(=O)(=O)N1CCN(C(=O)C(=O)c2cccc(C(F)(F)F)c2)CC1
AC50 [3]: 49.5 µM (active)

N#Cc1sc2nc(-c3cccs3)cc(-c3ccccc3)c2c1N
IC50 (Ephrin type-A receptor 4): > 100 µM (not active)

COc1ccc2c3c([nH]c2c1)[C@H](CO)N(S(=O)(=O)c1ccc(C)cc1)CC31CCN(C(=O)Cc2cccnc2)CC1
AC50 [4]: 0.54 µM (active)
AC50 [5]: 1.19 µM (active)
AC50 [6]: 0.332 µM (active)
AC50 [7]: > 39 µM (inactive)
AC50 [8]: 0.265 µM (active)

Fc1ccc(-c2cc3nc4c(c(N5CCOCC5)n3n2)CCCC4)cc1
IC50 (Ephrin type-A receptor 4): > 100 µM (not active)

COc1ccc(NC(=O)N(C)C[C@H]2Oc3ccc(NC(=O)c4ccncc4)cc3C(=O)N([C@H](C)CO)C[C@@H]2C)cc1
IC50 [9]: 27.8 µM (active)
IC50 [10]: 40.4 µM (active)

COc1cc(/C=C2\SC(Nc3ccccc3)=NC2=O)cc(Cl)c1O
AC50 [11]: 7.03 µM (active)
CC50 [1]: 100 µM (active)
IC50 [2]: 55.7 µM (active)

CN1C(=O)c2cc(NC(=O)c3ccc4c(c3)OCO4)ccc2OC[C@@H]2O[C@@H](CC(=O)O)CC[C@@H]21
AC50 [7]: 38.5 µM (active)

COc1cc2c3cc1Oc1cc(ccc1O)C[C@@H]1c4c(cc(OC)c(O)c4Oc4cccc(c4)C[C@@H]3N(C)CC2)CC[N+]1(C)C
AC50 [12]: 15.4 µM (active)
AC50 [13]: 8.2 µM (active)

Cn1c2ccccc2c2cc(/C=N/NC(=O)c3cc(O)ccc3O)ccc21
IC50 [14]: 15.2 µM (active)
IC50 [15]: 4.94 µM (active)
IC50 (H9c2): > 79 µM (inactive)
IC50 [9]: 18 µM (active)
IC50 [10]: 37.3 µM (active)
AC50 (Caspase-6): 43.1 µM (active)

CN(C)C(=O)C[C@@H]1C[C@@H]2c3cc(NC(=O)c4cccnc4)ccc3O[C@@H]2[C@@H](CO)O1
AC50 [12]: 12.7 µM (active)

COc1ccccc1-c1ccc2c(c1)[C@H]1[C@H](CCN1C(=O)C1CCC1)[C@H](CO)N2
AC50 [5]: 5.25 µM (active)
AC50 [7]: 30.5 µM (active)

O=C1OC(=O)/C(=C\NC23CC4CC(CC(C4)C2)C3)C=C1Br
IC50 [16]: 12.9 µM (inactive)
IC50 [17]: 2.6 µM (active)

COc1ccc2oc(=O)c(Br)cc2c1
IC50 [16]: 80.2 µM (inactive)
IC50 [17]: > 100 µM (inactive)

Cc1cc(N(CCCl)CCCl)ccc1C=NNC(=O)Cc1cc(=O)oc2cc(O)ccc12
IC50 [9]: 8.75 µM (active)
IC50 [10]: 28.7 µM (active)

COc1ccc2c3c(n(C)c2c1)[C@@H](CO)N(C(=O)C1CC1)CC31CN(C(=O)Nc2cccc(F)c2)C1
AC50 [4]: 0.209 µM (active)
AC50 [5]: 0.692 µM (active)
AC50 [6]: 0.196 µM (active)
AC50 [8]: 0.164 µM (active)

CCOc1ccccc1N/C=C1\C(=O)OC(=O)c2ccccc21
IC50 [16]: > 100 µM (inactive)
IC50 [17]: > 100 µM (inactive)

CCCCc1ccc(NC(=O)c2cc(=O)c(OC)c[nH]2)cc1
IC50 [16]: > 100 µM (inactive)
IC50 [17]: > 100 µM (inactive)

Cc1ccc(Nc2nc(N)c3ccccc3n2)cc1C
EC50 [18]: 7.32 µM (active)
IC50 (cells [19]): > 29.9 µM (inactive)
EC50 [20]: 4.53 µM (active)
IC50 [21]: 8.34 µM (active)
EC50 (cells [22]): > 29.9 µM (inactive)
AC50 [23]: 34 µM (active)
AC50 [24]: 2.36 µM (active)
AC50 [25]: 2.9 µM (active)
AC50 [26]: 5 µM (active)

C/N=C1/S/C(=C\c2ccc(O)c(Br)c2)C(=O)N1C
AC50 [11]: 0.194 µM (active)
CC50 [1]: 74.9 µM (active)
IC50 [2]: 42 µM (active)
